Starred links: 1 amine or outer side, 2 acyl side, 3 side chain; linkers in the order of their positions; H or OH if unused. Non-standard residues stand in square brackets, D forms with d. No end group written: not given here. γGlu = O=C(O)[C@H](CCC(=O)[*:2])N[*:1]; Abu = CC[C@H](N)C(=O)O
How the values were obtained:
[1] = Fat-like richness and smoothness imparted to low-calorie mayonnaise, quantitative sensory evaluation test; type: in vivo, human; settings: for Fat-like richness / Smoothness: control 0, strong 3, very strong 5 points
Procedure: In the same manner as that in Example 1 except that commercially-available low-calorie mayonnaise (having a fat content reduced by 50% compared with a normal product) was used instead of low-fat milk, each peptide was measured for its fat-like richness-imparting intensity.
In the same manner as that in Example 2, each sample was measured for its intensity of imparting fat-like richness.

[2] = Fat-like richness and smoothness imparted to low-fat milk, quantitative sensory evaluation test; type: in vivo, human; settings: for Fat-like richness / Smoothness: n=12, control 0, strong 3, very strong 5 points
Procedure: (§1) The quantitative sensory evaluation test was performed as follows. Each of γ-Glu-Cys-Gly (glutathione), γ-Glu-Val-Gly, and γ-Glu-Abu-Gly was mixed with commercially-available low-fat milk (non-fat milk solids content: 8.6% or more, milk fat content: 1.5%) at a concentration of 0.00001 to 1 g/dl, and the intensity of imparting fat-like richness was measured.
It should be noted that each peptide was dissolved in low-fat milk, and then a sample, the pH of which was lowered, was adjusted with NaOH so that the pH might be ±0.2 with respect to the pH of the low-fat milk free of peptide.
The sensory score for fat-like richness and smoothness was defined as follows: control (free of peptide): 0 point; strong: 3 points; and very strong: 5 points. Then, the test was performed with n=12. […] As clear from Table 6, it was confirmed that the peptide imparted fat-like richness and smoothness to low-fat milk at a lower concentration than glutathione.
as §1, with “γ-Glu-Val-Gly” for “γ-Glu-Cys-Gly (glutathione), γ-Glu-Val-Gly,”, “cinacalcet” for “γ-Glu-Abu-Gly”
It should be noted that each sample was dissolved in low-fat milk, and then a sample, the pH of which was lowered, was adjusted with NaOH so that the pH might be ±0.2 with respect to the pH of the low-fat milk free of a sample.
The sensory score for fat-like richness and smoothness was defined as follows: control (free of sample): 0 point; strong: 3 points; and very strong: 5 points. Then, the test was performed with n=12.

[3] = 0.001 g/dl in low-calorie mayonnaise, Table 7
[4] = 0.01 g/dl in low-calorie mayonnaise (fat reduced by 50%), Table 7
[5] = 0.01 g/dl in low-calorie mayonnaise, Table 7
[6] = 0.001 g/dl in low-fat milk, Table 6
[7] = 0.01 g/dl in low-fat milk (milk fat 1.5%), Table 6
[8] = 0.01 g/dl in low-fat milk, Table 6
[9] = 0.0001 g/dl in low-calorie mayonnaise, Table 7
[10] = 0.001 g/dl in low-calorie mayonnaise, Table 9
[11] = 0.0001 g/dl in low-fat milk, Table 6
[12] = 0.001 g/dl in low-fat milk, Table 8

[γGlu]-[Abu]-Gly
Taste profile [1, 3]: Fat-like richness with sweet
Fat-like richness [1, 3]: 3.2 points
Smoothness [1, 3]: 3.0 points
Fat-like richness [1, 4]: 4.7 points
Taste profile [1, 5]: Fat-like richness with sweet
Smoothness [1, 5]: 4.3 points
Fat-like richness [2, 6]: 2.3 points
Smoothness [2, 6]: 3.0 points
Fat-like richness [2, 7]: 4.3 points
Smoothness [2, 8]: 4.0 points

[γGlu]-Val-Gly
Taste profile [1, 9]: Taste is enhanced in middle
Fat-like richness [1, 9]: 3.0 points
Smoothness [1, 9]: 3.0 points
Taste profile [1, 3]: Taste is enhanced in middle
Taste profile [1, 10]: Taste is enhanced in middle
Fat-like richness [1, 3]: 4.8 points
Smoothness [1, 3]: 4.5 points
Fat-like richness [1, 10]: 4.8 points
Smoothness [1, 10]: 4.5 points
Taste profile [2, 11]: Taste is enhanced in middle
Fat-like richness [2, 11]: 2.5 points
Smoothness [2, 11]: 2.3 points
Taste profile [2, 6]: Taste is enhanced in middle
Taste profile [2, 12]: Taste is enhanced in middle taste
Fat-like richness [2, 6]: 4.5 points
Smoothness [2, 6]: 4.0 points
Fat-like richness [2, 12]: 4.5 points
Smoothness [2, 12]: 4.0 points

N[C@@H](CCC(=O)N[C@@H](CS)C(=O)NCC(=O)O)C(=O)O [γ-Glu-Cys-Gly, reference compound]
Fat-like richness [1, 4]: 3.5 points
Taste profile [1, 5]: Fat-like richness with sweet
Smoothness [1, 5]: 3.0 points
Fat-like richness [2, 7]: 2.5 points
Taste profile [2, 8]: Growth exists in the whole
Smoothness [2, 8]: 3.0 points
